Source: US20090035270A1, “COMBINATION THERAPY USING ANTI-ANGIOGENIC AGENTS AND TNF alpha” (priority 2001, published 2009)
Residues, ends and D or L forms follow the SMILES beside them. *: point of attachment. Cbz = O=C(OCc1ccccc1)*; CH2F = FC*

What was measured:
Type in all cases: cell-based, human
HUVEC [1] = assay: HUVEC spheroid formation (aggregation) in BSA-coated wells; details: mAbs 10 μg/ml, EDTA 5 mM, evaluated at 6 and 16 hours
Protocol: To test the effect of integrin ligation on TNF-induced apoptosis we identified conditions where endothelial cells could be cultured without integrin-dependent adhesion. Single cell suspensions of endothelial cells rapidly die by anoikis (Meredith et al., Mol. Biol. Cell 4, 953-961 (1993)) thus precluding further analysis. But by seeding human umbilical vein endothelial cells (HUVEC) at high density (1.0×10^6 cells/ml) in BSA-coated wells multicellular spheroids formed within 2-4 hours, and could be maintained for over 24 hours dependent on VE-cadherin and without any detectable contribution from integrins.
HUVEC were collected by trypsinization, resuspended in complete medium at 1.0×10^6 cells/ml and 1 ml/well were seeded into 12 wells non-tissue culture plates (Evergreen Scientific, Los Angeles, Calif., USA) previously coated with 1% BSA. For aggregation studies, 200 μl of the cell suspension were seeded into 1% BSA-coated microwells of ELISA plates (Maxisorp II, NUNC, Roskilde, Denmark) alone or in the presence of mAbs (10 μg/ml), EDTA (5 mM) or Ca^2+/EDTA (10/5 mM). Spheroid formation was evaluated at 6 hours and 16 hours. Micrographs were take with a Televal 31 microscope (Cart Zeiss AG, Zürich; Switzerland).

ICAM-1 expression = assay: Flow cytometry of ICAM-1 cell surface expression induced by TNF in HUVEC; details: HUVEC treated with TNF
Protocol: Activation of the nuclear factor-κB (NF-κB) promotes survival of cells exposed to TNF (Beg & Baltimore, Science 274, 782-784; Van Antwerp et al., Science 274, 787-789 (1996)). Since cell adhesion via integrins activates NF-κB (Scatena et al., J. Cell Biol. 141, 1083-1093 (1998)), we investigated whether the sensitivity of spheroids to TNF-induced apoptosis was due to lack of NF-κB activation. NF-κB activation was assessed by measuring I-κB phosphorylation and degradation, NF-κB nuclear translocation and cell surface expression of ICAM-1, an NF-κB-induced gene (Collins et al., Faseb J. 9, 899-909. (1995)), in spheroid and fibronectin-adherent HUVEC cultures exposed to TNF±IFNγ.
Aktmp suppresses TNF-induced apoptosis of spheroids in the presence of active NF-κB. We also tested whether both NF-κB activation and active Akt signaling were required for the survival, or whether active Akt alone was sufficient. […]
Indirect immunostaining of HUVEC and EGFP expression were performed following standard protocol (Ruegg et al., I.c.). […] Ail samples were analyzed with a FACScan II® and Cell Quest® software (Becton Dickinson, Mountain View Calif., USA).

HUVEC [2] = assay: Detection of apoptotic HUVEC in culture (YoPro-1 staining); details: spheroids; TNF±IFNγ
Protocol: To test whether integrins modulate TNF-induced apoptosis, we cultured HUVEC on fibronectin (integrin-dependent adhesion) or as spheroids (integrin-independent adhesion) in the absence or presence of TNF (200 ng/ml) and of IFNγ (330 ng/ml), an enhancer of TNF cytotoxicity (Dealtry et al., Eur. J. Immunol. 17, 689-693 (1987)). […] In contrast, spheroids treated with TNF±IFNγ increased uptake of YoPro-1 (an increase suppressed by caspase inhibitors BOC, Z-VAD, IETD and DVED), DNA fragmentation, caspase-3 activation and cleavage of PARP (FIG. 2a, 2b and data not shown). To examine the effect of TNF±IFNγ on cell survival we determined the viability of untreated and treated cultures. […] Treatment with IFNγ alone was not cytotoxic (data not shown). HUVEC adhere to immobilized fibronectin via αVβ3 and α5β1 integrins (Rüegg et al., Nature Med. 4, 408-414 (1998)). To test for the individual contribution of these integrins to cell survival on fibronectin, we cultured HUVEC on plastic-immobilized mAbs (imAbs) directed against αVβ3, α1, α5 and α4 integrins.
For morphological evaluation, spheroids were embedded in Epon (Fluka Chemie) and thick sections were stained with 1% Methylene/Azur blue. For immunostaining, frozen spheroid sections were fixed in 4% (Fluka Chemis, Buchs, Switzerland) formaldehyde. After blocking with 1% BSA, sections were sequentially incubated for 1 hour with primary mAb (20 μg/ml) and a Cyan3-labeled GaM antiserum (West Grove, Pa., USA). For the TUNEL reaction, frozen spheroids sections were fixed in 4% paraformaledhyde and processed as described (Ruegg et al., I.e.). Spherouids were countsrstained with propidium iodide for total DNA content. […] The apoptosis index was determined by calculating the ratio between the green (TUNEL staining of fragmented DNA) and red (propidium iodide staining by total DNA) pixels. Number of analyzed spheroids per condition were: C, 31; T, 21; TI, 12. […] Cultures were viewed by inverted fluorescence microscopy (Leica DM IRB, Heerbrugg, Switzerland). […]

HUVEC [3] = assay: Death ligand cytotoxicity on fibronectin-cultured HUVEC with EMD121974 (viability); details: EMD121974 300 μM, ligand 200 ng/ml, overnight
Protocol: FIG. 8. Decreased integrin ligation enhances TNF-, TRAIL- and FasL-induced cytotoxicity in vitro. HUVEC were cultured overnight on fibronectin coated microtiter plates in the absence (control) or presence of EMD121974 (300 μM), TNF (200 ng/ml), FasL (200 ng/ml), TRAIL (200 ng/ml), LIGHT (200 ng/ml), and IFNγ (330 ng/ml) as indicated. Viability was determined by MST assays.

O=C(O)CN(CCN(CC(=O)O)CC(=O)O)CC(=O)O [EDTA]
HUVEC spheroid formation (HUVEC [1]): blocked spheroid formation

O=c1cc(N2CCOCC2)oc2c(-c3ccccc3)cccc12 [LY294002]
inhibition of ICAM-1 expression induced by TNF (ICAM-1 expression): did not inhibit

CC(NC(=O)C(NC(=O)OCc1ccccc1)C(C)C)C(=O)NC(CC(=O)O)C(=O)CF (stereo not drawn) [Z-VAD] (Cbz-Val-Ala-Asp-CH2F; configuration not given here)
effect of caspase inhibitor on increased YoPro-1 uptake of spheroids treated with TNF±IFNγ (HUVEC [2]): suppressed

COC[C@H]1OC(=O)c2coc3c2[C@@]1(C)C1=C(C3=O)[C@@H]2CCC(=O)[C@@]2(C)C[C@H]1OC(C)=O [wortmannin]
inhibition of ICAM-1 expression induced by TNF (ICAM-1 expression): did not inhibit

IETD
effect of caspase inhibitor on increased YoPro-1 uptake of spheroids treated with TNF±IFNγ (HUVEC [2]): suppressed

B1: TRAIL: death ligand of the TNF-ligand family (protein, UniProt P50591 1-281, looked up)
Tumor necrosis factor ligand …: MAMMEVQGGPSLGQTCVLIVIFTVLLQSLCVAVTYVYFTNELKQMQDKYSKSGIACFLKEDDSYWDPNDEESMNSPCWQVKWQLRQLVRKMILRTSEETISTVQEKQQNISPLVRERGPQRVAAHITGTRGRSNTLSSPNSKNEKALGRKINSWESSRSGHSFLSNLHLRNGELVIHEKGFYYIYSQTYFRFQEEIKENTKNDKQMVQYIYKYTSYPDPILLMKSARNSCWSKDAEYGLYSIYQGGIFELKENDRIFVSVTNEHLIDMDHEASFFGAFLVG
sensitivity to pro-apoptotic effects of death ligand in the presence of EMD121974 (synergism with αVβ3-blockage) (HUVEC [3]): Increased sensitivity

B2: LIGHT: ligand binding to receptors lacking a death domain (protein, UniProt O43557 83-240, looked up)
Tumor necrosis factor ligand …: LIQERRSHEVNPAAHLTGANSSLTGSGGPLLWETQLGLAFLRGLSYHDGALVVTKAGYYYIYSKVQLGGVGCPLGLASTITHGLYKRTPRYPEELELLVSQQSPCGRATSSSRVWWDSSFLGGVVHLEAGEKVVVRVLDERLVRLRDGTRSYFGAFMV
sensitivity to pro-apoptotic effects of death ligand in the presence of EMD121974 (synergism with αVβ3-blockage) (HUVEC [3]): no synergism

B3: FasL: death ligand of the TNF-ligand family (Fas ligand) (protein, UniProt P48023 130-281, looked up)
Tumor necrosis factor ligand …: QIGHPSPPPEKKELRKVAHLTGKSNSRSMPLEWEDTYGIVLLSGVKYKKGGLVINETGLYFVYSKVYFRGQSCNNLPLSHKVYMRNSKYPQDLVMMEGKMMSYCTTGQMWARSSYLGAVFNLTSADHLYVNVSELSLVNFEESQTFFGLYKL
sensitivity to pro-apoptotic effects of death ligand in the presence of EMD121974 (synergism with αVβ3-blockage) (HUVEC [3]): Increased sensitivity
